Measurements as given in patent publication US20110318768A1, “METHOD FOR DETERMINING SENSITIVITY OF TUMOR CELLS TO TYROSINE KINASE INHIBITOR AND COMPUTER PROGRAM PRODUCT” (SYSMEX CORPORATION, priority 2010, published 2011).

Key:
Assay in all cases: Tyrosine kinase activity inhibition rate in cell membrane fraction (Poly-Glu4-Tyr substrate)
Type in all cases: biochemical
[1] = system: tyrosine kinase in cell membrane fraction of BT-483
Protocol: (§1) Breast cancer cell lines shown in Table 3 were cultured in a 150 mm dish so as to be about 80% confluent, the cells were recovered using PBS and a scraper, and a cell pellet was obtained by centrifugal operation (900×g, for 5 minutes, at 4° C.). The pellet was frozen with liquid nitrogen and stored at −80° C. until preparation of the measurement sample.
(§2) 500 μl of NP40 (−) solubilized buffer (20 mM HEPES (pH 7.4)), (w/v) % glycerol, 0.2% protease inhibitor cocktail (#P8340: Sigma-Aldrich (product composition: 104 mM AEBSF, 80 μM aprotinin, 4 mM bestatin, 1.4 mM E-64, 2 mM leupeptin, 1.5 mM Pepstatin A), 50 mM NaF and 200 μM Na3VO4) was added to the cell pellet, followed by stirring for 2 seconds three times using a vortex mixer. After being allowed to stand for 10 minutes, the soluble fraction was removed by centrifugal operation (at 20000×g, for 30 minutes, at 4° C.). The obtained pellet was resuspended in 500 μl of NP40 (−) solubilized buffer, the soluble fraction was again removed by centrifugal operation (at 20000×g, for 20 minutes, at 4° C.), and the pellet was washed. The pellet was resuspended by adding 500 μl of NP40 (+) solubilized buffer (a buffer prepared by adding NP-40 to the NP40 (−) solubilized buffer at a final concentration of 1%) to the pellet, pipetting fifty times, and vortexing for 2 seconds three times. After being allowed to stand for 10 minutes, a cell membrane fraction containing a membrane protein was obtained by centrifugal operation (at 20000×g, for 40 minutes, at 4° C.). The protein concentration of the fraction was measured by DC protein assay (#500-0116 JA: Bio-Rad) and the fraction was used as a sample for kinase activity measurement. The sample was frozen with liquid nitrogen and stored at −80° C. until used for the following kinase activity measurement.
(§3) NeutrAvidin Coated Plates (HBC) (96 white plate; #15509: Pierce) were washed three times with 300 μl of TBS-T (20 mM Tris-HCl (pH 7.4)), 150 mM NaCl, 0.1% Tween), and then 100 μl of Poly-Glu4-Tyr biotin conjugate (#12440: Upstate) which had been diluted to 1 μg/ml with TBS (20 mM Tris-HCl (pH 7.4), 150 mM NaCl) was added to the wells. After shaking at 37° C. and 400 rpm for 90 minutes, the wells were washed with 300 μl of TBS-T three times and a measuring plate was obtained.
(§4) The measurement sample was diluted with a kinase buffer (20 mM HEPES (pH 7.4), 25 mM MgCl2, 1.25 mM MnCl2, 250 μM Na3VO4, 12.5 (w/v) % glycerol) so as to adjust the protein concentration to 6.25 μg/ml. The diluted measurement sample was transferred to wells of a 96 well V bottom plate. A DMSO solution (inhibitor concentration: 5 mM) containing one type of tyrosine kinase inhibitors (Inhibitors 1 to 10 shown in Table 6) was added to the wells at a ratio of 1:160 based on the diluted measurement sample solution, followed by mixing thereof. As the control, DMSO was added to the diluted measurement sample at the same ratio as the solution of the inhibitor. The used tyrosine kinase inhibitors are represented as Inhibitors 1 to 10 in Table 6.
(§5) After addition of the inhibitors, a mixed solution of the measurement sample and the inhibitor was allowed to stand at room temperature for 10 minutes. 40 μl of the mixed solution was transferred to wells of the measuring plate and 10 μl of an ATP solution (20 mM HEPES (pH 7.4), […]) as the phosphate group donor was added to the wells.
(§6) The composition of the solution in the wells is as follows: protein concentration: 5 μg/ml, 20 mM HEPES (pH 7.4), 20 mM MgCl2, 1 mM MnCl2, 200 μM Na3VO4, 10 (w/v) % glycerol, 25 μM ATP, 25 μM kinase inhibitor.
(§7) After shaking the measuring plate at 37° C. and 400 rpm for 60 minutes, the solution was removed from the measuring plate, and the wells were washed with 300 μl of TBS-T three times. 100 μl of Starting Block T20 (TBS) (#37543: Pierce) as a blocking solution was added to the wells, followed by blocking at 37° C. and 400 rpm for 10 minutes. The blocking solution was removed from the measuring plate. […]

[2] = system: tyrosine kinase in cell membrane fraction of MCF7
Protocol: as §1, §2, §3, §4, §5, §6, §7

[3] = system: tyrosine kinase in cell membrane fraction of MDA-MB-453
Protocol: as §1, §2, §3, §4, §5, §6, §7

[4] = system: tyrosine kinase in cell membrane fraction of HS578T
Protocol: as §1, §2, §3, §4, §5, §6, §7

[5] = system: tyrosine kinase in cell membrane fraction of HCC1428
Protocol: as §1, §2, §3, §4, §5, §6, §7

[6] = system: tyrosine kinase in cell membrane fraction of HCC202
Protocol: as §1, §2, §3, §4, §5, §6, §7

[7] = system: tyrosine kinase in cell membrane fraction of AU565
Protocol: as §1, §2, §3, §4, §5, §6, §7

[8] = system: tyrosine kinase in cell membrane fraction of SK-BR-3
Protocol: as §1, §2, §3, §4, §5, §6, §7

[9] = system: tyrosine kinase in cell membrane fraction of UACC812
Protocol: as §1, §2, §3, §4, §5, §6, §7

[10] = system: tyrosine kinase in cell membrane fraction of MDA-MB-435S
Protocol: as §1, §2, §3, §4, §5, §6, §7

[11] = system: tyrosine kinase in cell membrane fraction of MDA-MB-231
Protocol: as §1, §2, §3, §4, §5, §6, §7

[12] = system: tyrosine kinase in cell membrane fraction of HCC1806
Protocol: as §1, §2, §3, §4, §5, §6, §7

[13] = system: tyrosine kinase in cell membrane fraction of ZR-75-1
Protocol: as §1, §2, §3, §4, §5, §6, §7

[14] = system: tyrosine kinase in cell membrane fraction of MDA-MB-415
Protocol: as §1, §2, §3, §4, §5, §6, §7

[15] = system: tyrosine kinase in cell membrane fraction of BT-20
Protocol: as §1, §2, §3, §4, §5, §6, §7

[16] = system: tyrosine kinase in cell membrane fraction of MDA-MB-157
Protocol: as §1, §2, §3, §4, §5, §6, §7

[17] = system: tyrosine kinase in cell membrane fraction of MDA-MB-436
Protocol: as §1, §2, §3, §4, §5, §6, §7

[18] = 25 μM kinase inhibitor, 25 μM ATP

**Q.** What does the source list for COc1cc2ncnc(Nc3ccc(Oc4ccccc4)cc3)c2cc1OC [Inhibitor 10, 4-(4′-phenoxyanilino)-6,7-dimethoxyquinazoline]?
**A.** Example 1 Inhibitory capacity of Src inhibitor [1]: high (the term “high” means a cell line whose inhibition rate of the Src inhibitor is more than the threshold value); Inhibition rate [1, 18]: 78.5%; Example 1 Inhibitory capacity of Src inhibitor [2]: high (the term “high” means a cell line whose inhibition rate of the Src inhibitor is more than the threshold value); Inhibition rate [2, 18]: 49.2%; Example 1 Inhibitory capacity of Src inhibitor [3]: low (the term “low” means a cell line whose inhibition rate of the Src inhibitor is lower than the threshold value (=43.4%)); Inhibition rate [3, 18]: 16.3%; Example 1 Inhibitory capacity of Src inhibitor [4]: high (the term “high” means a cell line whose inhibition rate of the Src inhibitor is more than the threshold value); Inhibition rate [4, 18]: 58.2%; Example 1 Inhibitory capacity of Src inhibitor [5]: high (the term “high” means a cell line whose inhibition rate of the Src inhibitor is more than the threshold value); Inhibition rate [5, 18]: 43.7%; Example 1 Inhibitory capacity of Src inhibitor [6]: low (the term “low” means a cell line whose inhibition rate of the Src inhibitor is lower than the threshold value (=43.4%)); Inhibition rate [6, 18]: 26.3%; Example 1 Inhibitory capacity of Src inhibitor [7]: low (the term “low” means a cell line whose inhibition rate of the Src inhibitor is lower than the threshold value (=43.4%)); Inhibition rate [7, 18]: 36.8%; Example 1 Inhibitory capacity of Src inhibitor [8]: low (the term “low” means a cell line whose inhibition rate of the Src inhibitor is lower than the threshold value (=43.4%)); Inhibition rate [8, 18]: 43.3%; Inhibition rate ([9]; UACC812, 25 μM kinase inhibitor, 25 μM ATP): 81.5%; Example 1 Inhibitory capacity of Src inhibitor ([9]; UACC-812): high (the term “high” means a cell line whose inhibition rate of the Src inhibitor is more than the threshold value); Example 1 Inhibitory capacity of Src inhibitor [10]: high (the term “high” means a cell line whose inhibition rate of the Src inhibitor is more than the threshold value); Inhibition rate [10, 18]: 44.9%; Example 1 Inhibitory capacity of Src inhibitor [11]: high (the term “high” means a cell line whose inhibition rate of the Src inhibitor is more than the threshold value); Inhibition rate [11, 18]: 63.6%; Example 1 Inhibitory capacity of Src inhibitor [12]: high (the term “high” means a cell line whose inhibition rate of the Src inhibitor is more than the threshold value); Inhibition rate [12, 18]: 67.1%; Example 1 Inhibitory capacity of Src inhibitor [13]: high (the term “high” means a cell line whose inhibition rate of the Src inhibitor is more than the threshold value); Inhibition rate [13, 18]: 55.8%; Example 1 Inhibitory capacity of Src inhibitor [14]: high (the term “high” means a cell line whose inhibition rate of the Src inhibitor is more than the threshold value); Inhibition rate [14, 18]: 68.6%; Example 1 Inhibitory capacity of Src inhibitor [15]: high (the term “high” means a cell line whose inhibition rate of the Src inhibitor is more than the threshold value); Inhibition rate [15, 18]: 56.6%; Example 1 Inhibitory capacity of Src inhibitor [16]: high (the term “high” means a cell line whose inhibition rate of the Src inhibitor is more than the threshold value); Inhibition rate [16, 18]: 60.3%; Example 1 Inhibitory capacity of Src inhibitor [17]: high (the term “high” means a cell line whose inhibition rate of the Src inhibitor is more than the threshold value); Inhibition rate [17, 18]: 44.9%
